Test results published in US20210261621A1, “Preparation of Dilipid Polymixins and Use Thereof as Antimicrobial Adjuvants” (priority 2018, published 2021).
≈ marks a conversion by molar mass, not a printed value. Where two headings read alike, the source gives them in different places. Positions of bridges follow the written chain, without caps; N, C: chain ends. Non-standard residues stand in square brackets, D forms with d. Residues, ends and D or L forms follow the SMILES beside them. *: point of attachment. Acetyl(1-adamantyl) = O=C(CC12CC3CC(CC(C3)C1)C2)*; Lauroyl = CCCCCCCCCCCC(=O)*; Dab = NCC[C@H](N)C(=O)O

How the values were obtained:
E. coli 94393 = assay type: cell-based, Escherichia coli; conditions: 94393
Method: (§1) We then addressed the possibility for the dilipid polymyxins to display enhanced antibacterial activity against colistin-resistant Gram-negative pathogens. […] The extended hydrophobic region of the dilipid polymyxin may provide additional hydrophobic interactions to the outer membrane of colistin-resistant organisms. Eight MDR colistin-resistant Gram-negative bacterial isolates were tested, including two E. coli isolates harboring the mcr-1 plasmid-encoded polymyxin resistance gene. We found no difference between the antibacterial activity of dilipid polymyxins and colistin against colistin-resistant Gram-negative bacteria (Table 3).
(§2) Bacterial strains were either obtained from the American Type Culture Collection (ATCC), Canadian National Intensive Care Unit (CAN-ICU) surveillance study or the Canadian Ward Surveillance (CANWARD) study. Strains from both CAN-ICU and CANWARD are isolates recovered from patients diagnosed with a presumed infectious disease that were admitted in a participating medical center across Canada. Efflux-deficient strain PAO200 (lacking MexAB-OprM efflux system) and PA0750 (lacking MexAB-OprM, MexCD-OprJ, MexEF-OprN, MexJK and MexXY efflux systems, and the outer membrane protein OpmH) were kindly gifted by Dr. Ayush Kumar (University of Manitoba).
(§3) The in vitro antibacterial activity of the compounds studied were assessed by broth microdilution susceptibility testing following CLSI guidelines. Bacterial cultures were grown overnight prior to the assay. The overnight grown cultures were diluted in saline to 0.5 McFarland turbidity, followed by 1:50 dilution in Mueller-Hinton broth (MHB) for inoculation to a final concentration of approximately 5×10^5 colony forming units/mL. Testing was performed on 96-well plates where the tested compounds were 2-fold serially diluted in MHB and incubated with equal volumes of bacterial inoculum at 37° C. for 18 h. […] Wells containing MHB with or without bacterial cells were used as positive or negative control, respectively.

E. coli 94474 = assay type: cell-based, Escherichia coli; conditions: 94474
Method: as §1, §2, §3

E. coli ATCC 25922 = assay type: cell-based, Escherichia coli
Source text: as §2, §3

E. coli CAN-ICU 61714 = assay type: cell-based, Escherichia coli
Source text: as §2, §3

E. coli CAN-ICU 63074 = assay type: cell-based, Escherichia coli
Source text: as §2, §3

E. coli 107115 = assay type: cell-based, Escherichia coli
Source text: as §2, §3

P. aeruginosa PAO750 = conditions: P. aeruginosa PAO750, efflux-deficient strain that lacks five pumps and OpmH
Source text: (§4) To our curiosity, we explored whether efflux can affect the activity of polymyxins. It is widely accepted that polymyxins disrupt Gram-negative bacterial membranes that result to intracellular component leakage and bacterial cell death. However, for this to occur requires the agent to reach the periplasmic space to interact and disrupt the inner membrane. Active efflux may potentially expel polymyxins out of the periplasm, effectively reducing its periplasmic and intracellular concentrations. To study the effect of efflux on polymyxins in Gram-negative pathogens, we used P. aeruginosa as they inherently overexpress efflux systems such as MexAB-OprM, MexCD-OprJ and MexXY-OprM. Moreover, antibiotic substrates for these efflux systems are mostly characterized. We evaluated and compared the activity of the dilipid polymyxins, colistin and PMBN against wild-type PAO1 and two efflux-deficient P. aeruginosa isogenic mutants (Table 5). The strain PAO200 lacks the MexAB-OprM efflux system while strain PAO750 lacks five clinically-relevant pumps (MexAB-OprM, MexCD-OprJ, MexEF-OprN, MexJK and MexXY) and outer membrane protein OpmH.
as §2, §3

P. aeruginosa PAO200 = conditions: P. aeruginosa PAO200, efflux-deficient strain that lacks the MexAB-OprM pump
Source text: as §4, §2, §3

P. aeruginosa 101243 = assay type: cell-based, Pseudomonas aeruginosa; conditions: 101243
Method: as §1, §2, §3

P. aeruginosa 114228 = assay type: cell-based, Pseudomonas aeruginosa; conditions: 114228
Method: as §1, §2, §3

P. aeruginosa 91433 = assay type: cell-based, Pseudomonas aeruginosa; conditions: 91433
Method: as §1, §2, §3

MRSA ATCC 33592 = assay type: cell-based, Staphylococcus aureus; conditions: MRSA ATCC 33592 (methicillin-resistant Staphylococcus aureus)
Source text: as §2, §3

S. aureus ATCC 29213 = assay type: cell-based, Staphylococcus aureus; conditions: S. aureus ATCC 29213
Source text: as §2, §3

MSSE CANWARD-2008 81388 = assay type: cell-based, Staphylococcus epidermidis; conditions: MSSE CANWARD-2008 81388 (methicillin-susceptible Staphylococcus epidermidis)
Source text: as §2, §3

K. pneumoniae ATCC 13883 = assay type: cell-based, Klebsiella pneumoniae; conditions: K. pneumoniae ATCC 13883
Source text: as §2, §3

K. pneumoniae 116381 = assay type: cell-based, Klebsiella pneumoniae; conditions: K. pneumoniae 116381
Source text: as §2, §3

K. pneumoniae 113250 = assay type: cell-based, Klebsiella pneumoniae; conditions: 113250
Method: as §1, §2, §3

K. pneumoniae 113254 = assay type: cell-based, Klebsiella pneumoniae; conditions: 113254
Method: as §1, §2, §3

A. baumannii 110193 = assay type: cell-based, Acinetobacter baumannii; conditions: A. baumannii 110193
Source text: as §2, §3

A. baumannii ATCC 17978 = assay type: cell-based, Acinetobacter baumannii; conditions: A. baumannii ATCC 17978
Source text: as §2, §3

A. baumannii LAC-4 = assay type: cell-based, Acinetobacter baumannii; conditions: A. baumannii LAC-4
Source text: as §2, §3

[1] = system: A. baumannii CAN-ICU 63169; assay type: cell-based, Acinetobacter baumannii
Source text: as §2, §3

A. baumannii AB031 = assay type: cell-based, Acinetobacter baumannii
Source text: as §2, §3

A. baumannii 92247 = assay type: cell-based, Acinetobacter baumannii; conditions: 92247
Method: as §1, §2, §3

Row | Structure (SMILES) | MIC (E. coli 94393) | MIC (E. coli 94474) | MIC (P. aeruginosa PAO750) | MIC (P. aeruginosa PAO200) | MIC (P. aeruginosa 101243) | MIC (P. aeruginosa 114228) | MIC (P. aeruginosa 91433) | MIC (MRSA ATCC 33592) | MIC (S. aureus ATCC 29213) | MIC (MSSE CANWARD-2008 81388) | MIC (K. pneumoniae ATCC 13883) | MIC (K. pneumoniae 116381) | MIC (K. pneumoniae 113250) | MIC (K. pneumoniae 113254) | MIC (A. baumannii 110193) | MIC (A. baumannii ATCC 17978) | MIC (A. baumannii LAC-4) | MIC (A. baumannii 92247) | also measured
1 | CCCCCCCCCCCC(=O)NCC[C@H](NC(=O)CCCCCCCCCCC)C(=O)N[C@H](C(=O)N[C@@H](CCN)C(=O)N[C@H]1CCNC(=O)[C@H]([C@@H](C)O)NC(=O)[C@H](CCN)NC(=O)[C@H](CCN)NC(=O)[C@H](CC(C)C)NC(=O)[C@@H](Cc2ccccc2)NC(=O)[C@H](CCN)NC1=O)[C@@H](C)O [Compound 3, Didodecanoic Acid (Di-C12) Polymyxin] (Lauroyl-[Dab](Lauroyl)T[Dab][Dab][Dab][dF]L[Dab][Dab]T; lactam 4-C) | 32 µg/mL (≈ 22.4 µM) | >64 µg/mL | 32 µg/mL (≈ 22.4 µM) | 32 µg/mL (≈ 22.4 µM) | 16 µg/mL (≈ 11.2 µM) | >128 µg/mL | 8 µg/mL (≈ 5.6 µM) | >128 µg/mL | >128 µg/mL | 64 µg/mL (≈ 44.8 µM) | >128 µg/mL | >128 µg/mL | >64 µg/mL | >64 µg/mL | >128 µg/mL | >128 µg/mL | >128 µg/mL | 32 µg/mL (≈ 22.4 µM) | MIC (E. coli ATCC 25922; ATCC 25922): 16 µg/mL (≈ 11.2 µM); MIC (E. coli CAN-ICU 61714; CAN-ICU 61714): 128 µg/mL (≈ 89.6 µM); MIC (E. coli CAN-ICU 63074; CAN-ICU 63074): 64 µg/mL (≈ 44.8 µM); MIC (E. coli 107115; 107115): 8 µg/mL (≈ 5.6 µM); MIC ([1]; CAN-ICU 63169): 128 µg/mL (≈ 89.6 µM); MIC (A. baumannii AB031; AB031): 64 µg/mL (≈ 44.8 µM)
2 | CC(C)C[C@@H]1NC(=O)[C@@H](Cc2ccccc2)NC(=O)[C@H](CCN)NC(=O)[C@@H](NC(=O)[C@H](CCN)NC(=O)[C@@H](NC(=O)[C@H](CCNC(=O)CC23CC4CC(CC(C4)C2)C3)NC(=O)CC23CC4CC(CC(C4)C2)C3)[C@@H](C)O)CCNC(=O)[C@H]([C@@H](C)O)NC(=O)[C@H](CCN)NC(=O)[C@H](CCN)NC1=O [Compound 4, Diadamantane Acetic Acid (Di-Adamantyl) Polymyxin] ({Acetyl(1-adamantyl)}-[Dab](Acetyl(1-adamantyl))T[Dab][Dab][Dab][dF]L[Dab][Dab]T; lactam 4-C) | 16 µg/mL (≈ 11.3 µM) | 8 µg/mL (≈ 5.65 µM) | 8 µg/mL (≈ 5.65 µM) | 4 µg/mL (≈ 2.83 µM) | 64 µg/mL (≈ 45.2 µM) | 8 µg/mL (≈ 5.65 µM) | 8 µg/mL (≈ 5.65 µM) | 32 µg/mL (≈ 22.6 µM) | 16 µg/mL (≈ 11.3 µM) | 16 µg/mL (≈ 11.3 µM) | >128 µg/mL | >128 µg/mL | >64 µg/mL | >64 µg/mL | 32 µg/mL (≈ 22.6 µM) | 32 µg/mL (≈ 22.6 µM) | 16 µg/mL (≈ 11.3 µM) | 8 µg/mL (≈ 5.65 µM) | MIC (E. coli ATCC 25922; E. coli ATCC 25922): 4 µg/mL (≈ 2.83 µM); MIC (E. coli CAN-ICU 61714; E. coli CAN-ICU 61714): 64 µg/mL (≈ 45.2 µM); MIC (E. coli CAN-ICU 63074; E. coli CAN-ICU 63074): 64 µg/mL (≈ 45.2 µM); MIC (E. coli 107115; E. coli 107115): 4 µg/mL (≈ 2.83 µM); MIC ([1]; A. baumannii CAN-ICU 63169): 128 µg/mL (≈ 90.4 µM); MIC (A. baumannii AB031; A. baumannii AB031): 16 µg/mL (≈ 11.3 µM)
